Reference: ChEMBL document CHEMBL1122257, “Synthesis and anticonvulsant activity of some tetracyclic indole derivatives” (1983)

How the values were obtained:
Type in all cases: functional
Rattus norvegicus [1] = assay: Tested for anticonvulsant activity in 3 rats after oral administration of 30 mg/kg po dose for protection against maximal electroshock in rat MES test; 0/3
Rattus norvegicus [2] = assay: Tested anticonvulsant activity in 6 rats after oral administration of 30 mg/kg po dose for rotarod performance; 0/6
Rattus norvegicus [3] = assay: Anticonvulsant activity in rats after oral administration of 30 mg/kg dose(effective dosage)
Rattus norvegicus [4] = assay: Tested for anticonvulsant activity in 3 rats after oral administration of 30 mg/kg po dose for protection against maximal electroshock in rat MES test; 2/3
Rattus norvegicus [5] = assay: Tested for anticonvulsant activity in 3 rats after oral administration of 30 mg/kg po dose for protection against maximal electroshock in rat MES test; 3/3
Rattus norvegicus [6] = assay: Tested anticonvulsant activity in 6 rats after oral administration of 300 mg/kg po dose for rotarod performance; 0/6
Rattus norvegicus [7] = assay: Tested anticonvulsant activity in 6 rats after oral administration of 30 mg/kg po dose for rotarod performance; 1/6
Rattus norvegicus [8] = assay: Tested for anticonvulsant activity in 3 rats after oral administration of 30 mg/kg po dose for protection against maximal electroshock in rat MES test; 1/3
Rattus norvegicus [9] = assay: Anticonvulsant activity in rats after oral administration of 30 mg/kg dose for rotarod performance; 0/6

| SMILES | Reactors/Test group (Rattus norvegicus [1]) | Reactors/Test group (Rattus norvegicus [2]) | other results |
| --- | --- | --- | --- |
| CN(C)C(=O)C1CCc2cccc3c4c(n1c23)CCCCC4 (stereo unspecified) | 0 | 0 |  |
| CN(C)CC1Cc2cccc3c4c(n(c23)C1)CCCCC4 (stereo unspecified) | 0 | 0 |  |
| CN(C)CC1Cc2cccc3c4c(n1c23)CCCCCC4 (stereo unspecified) | 0 | 0 |  |
| CN(C)CC1CCc2cccc3c4c(n1c23)CCCCC4 (stereo unspecified) |  | 0 | ED50 (Rattus norvegicus [3]): 78.9 mg/kg; Reactors/Test group (Rattus norvegicus [4]): 2 |
| CN(C)CCC1CCc2cccc3c4c(n1c23)CCCCC4 (stereo unspecified) |  | 0 | ED50 (Rattus norvegicus [3]): 27.4 mg/kg; Reactors/Test group (Rattus norvegicus [5]): 3 |
| CN(C)CC1CCc2cccc3c4c(n1c23)-c1ccccc1SC4 (stereo unspecified) | 0 | 0 |  |
| CN(C)CC1Cc2cccc3c4c(n1c23)CCCC4 (stereo unspecified) |  | 0 | ED50 (Rattus norvegicus [3]): 19.2 mg/kg; Reactors/Test group (Rattus norvegicus [5]): 3 |
| CN(C)CCC1CCc2cccc3c4c(n1c23)CCN(C)C4 (stereo unspecified) | 0 | 0 |  |
| CN(C)CC1CCc2cccc3c4c(n1c23)CCCCCC4 (stereo unspecified) | 0 | 0 |  |
| CN(C)CC1Cn2c3c(c4cccc1c42)CCCCCC3 (stereo unspecified) | 0 | 0 |  |
| CN(C)CC1CCc2cccc3c4c(n1c23)CCC4 (stereo unspecified) |  | 0 | ED50 (Rattus norvegicus [3]): 12.5 mg/kg; Reactors/Test group (Rattus norvegicus [5]): 3 |
| CN(C)CC1Cn2c3c(c4cccc1c42)CCCCC3 (stereo unspecified) | 0 | 0 |  |
| CN(C)CC1CCc2cccc3c4c(n1c23)CCCC4 (stereo unspecified) |  |  | Reactors/Test group (Rattus norvegicus [6]): 0; Reactors/Test group (Rattus norvegicus [5]): 3 |
| CN1CCN(C(=O)C2CCc3cccc4c5c(n2c34)CCCCC5)CC1 (stereo unspecified) | 0 | 0 |  |
| CN(C)CCC1CCc2cccc3c4c(n1c23)CCCC4 (stereo unspecified) |  | 0 | Reactors/Test group (Rattus norvegicus [4]): 2 |
| CNC(=O)C1CCc2cccc3c4c(n1c23)CCCC4 (stereo unspecified) | 0 | 0 |  |
| CNC(=O)C1CCc2cccc3c4c(n1c23)CCC4 (stereo unspecified) | 0 | 0 |  |
| CN(C)CCC1CCc2cccc3c4c(n1c23)CCCCCC4 (stereo unspecified) | 0 | 0 |  |
| CN(C)CC1CCc2cccc3c4c(n1c23)-c1ccccc1CC4 (stereo unspecified) |  |  | Reactors/Test group (Rattus norvegicus [7]): 1; Reactors/Test group (Rattus norvegicus [8]): 1 |
| CNC(=O)C1CCc2cccc3c4c(n1c23)CCCCC4 (stereo unspecified) |  | 0 | ED50 (Rattus norvegicus [3]): 12.9 mg/kg; Reactors/Test group (Rattus norvegicus [5]): 3 |
| CN(C)CC1CCc2cccc3c4c(n1c23)CCSC4 (stereo unspecified) | 0 | 0 |  |
| CN(C)CCC1CCc2cccc3c4c(n1c23)CCSC4 (stereo unspecified) | 0 |  | Reactors/Test group (Rattus norvegicus [7]): 1 |
| CN(C)CCC1CCc2cccc3c4c(n1c23)CCC4 (stereo unspecified) | 0 | 0 |  |
| CN(C)CC1Cc2cccc3c4c(n(c23)C1)Cc1ccccc1-4 (stereo unspecified) | 0 |  | Reactors/Test group (Rattus norvegicus [7]): 1 |
| CN(C)CC1Cc2cccc3c4c(n(c23)C1)CCCCCC4 (stereo unspecified) | 0 |  | Reactors/Test group (Rattus norvegicus [7]): 1 |
| CN(C)CC1Cc2cccc3c4c(n1c23)CCCCC4 (stereo unspecified) | 0 | 0 |  |
| CNCC1CCc2cccc3c4c(n1c23)CCCCC4 (stereo unspecified) | 0 | 0 |  |
| O=C1NC(=O)C(c2ccccc2)(c2ccccc2)N1 [PHENYTOIN] |  |  | Reactors/Test group (Rattus norvegicus [9]): 0; ED50 (Rattus norvegicus [3]): 42.3 mg/kg |
